ChEMBL document CHEMBL1201862, “PubChem BioAssay data set” (2004)
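Exposure lasted 48 hours, with cells grown in 96-well plates and compounds tested at five concentrations. GI50 = concentration required for 50% inhibition of growth.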 Active and inactive are the calls of the source. Rule as the data show it: active = GI50 up to about 1.1 µM and inactive = higher.

Tests used:
Assay in all cases: NCI tumour cell line growth inhibition, 48 h
SK-MEL-5 = tested on: SK-MEL-5
OVCAR-4 = tested on: OVCAR-4
RPMI-8226 = tested on: RPMI-8226
TK-10 = tested on: TK-10
COLO 205 = tested on: COLO 205
CCRF-CEM = tested on: CCRF-CEM
HOP-62 = tested on: HOP-62
OVCAR-8 = tested on: OVCAR-8
A549 = tested on: A549
SK-MEL-28 = tested on: SK-MEL-28
SN12C = tested on: SN12C
MOLT-4 = tested on: MOLT-4
M14 = tested on: M14
HCT-15 = tested on: HCT-15
CAKI-1 = tested on: CAKI-1
SNB-75 = tested on: SNB-75
NCI-H226 = tested on: NCI-H226
SF-539 = tested on: SF-539
U-251 = tested on: U-251
ACHN = tested on: ACHN

SMILES | GI50 (SK-MEL-5) | GI50 (OVCAR-4) | GI50 (RPMI-8226) | GI50 (TK-10) | GI50 (COLO 205) | GI50 (CCRF-CEM) | GI50 (HOP-62) | GI50 (OVCAR-8) | GI50 (A549) | GI50 (SK-MEL-28) | GI50 (SN12C) | GI50 (MOLT-4) | GI50 (M14) | GI50 (HCT-15) | GI50 (CAKI-1) | GI50 (SNB-75) | GI50 (NCI-H226) | GI50 (SF-539) | GI50 (U-251) | GI50 (ACHN)
c1csc(-c2sc(-c3ccsc3)cc2Cc2ccsc2)c1 | > 10 µM (inactive) | > 10 µM (inactive) | > 10 µM (inactive) | > 10 µM (inactive) | > 10 µM (inactive) | > 10 µM (inactive) | > 10 µM (inactive) | > 10 µM (inactive) | > 10 µM (inactive) | > 10 µM (inactive) | > 10 µM (inactive) | > 10 µM (inactive) | > 10 µM (inactive) | > 10 µM | > 10 µM (inactive) | > 10 µM (inactive) | – | – | – | –
O=C(NN=C1CCN(Cc2ccccc2)CC1)C(O)(c1ccccc1)c1ccccc1 | > 100 µM (inactive) | > 100 µM (inactive) | > 100 µM (inactive) | > 100 µM (inactive) | > 100 µM (inactive) | > 100 µM (inactive) | > 100 µM (inactive) | > 100 µM (inactive) | > 100 µM (inactive) | > 100 µM (inactive) | > 100 µM (inactive) | > 100 µM (inactive) | > 100 µM (inactive) | > 100 µM | – | > 100 µM (inactive) | > 100 µM (inactive) | > 100 µM (inactive) | > 100 µM (inactive) | –
CCOC(C)OCC#CCCBr (configuration not stated) | > 100 µM (inactive) | > 100 µM (inactive) | > 100 µM (inactive) | > 100 µM (inactive) | > 100 µM (inactive) | 37.1 µM (inactive) | > 100 µM (inactive) | > 100 µM (inactive) | > 100 µM (inactive) | – | > 100 µM (inactive) | > 100 µM (inactive) | > 100 µM (inactive) | > 100 µM | > 100 µM (inactive) | 55.3 µM (inactive) | – | > 100 µM (inactive) | > 100 µM (inactive) | > 100 µM (inactive)
CC[P+](C)(Cc1ccccc1)c1ccccc1 (configuration not stated) | 51.3 µM (inactive) | > 100 µM (inactive) | 57.4 µM (inactive) | > 100 µM (inactive) | 69.5 µM (inactive) | > 100 µM (inactive) | > 100 µM (inactive) | > 100 µM (inactive) | > 100 µM (inactive) | > 100 µM (inactive) | > 100 µM (inactive) | > 100 µM (inactive) | > 100 µM (inactive) | > 100 µM | – | > 100 µM (inactive) | > 100 µM (inactive) | > 100 µM (inactive) | 59 µM (inactive) | > 100 µM (inactive)
C#CCOC(=O)C(N)CS (configuration not stated) | > 100 µM (inactive) | – | > 100 µM (inactive) | > 100 µM (inactive) | > 100 µM (inactive) | > 100 µM (inactive) | > 100 µM (inactive) | > 100 µM (inactive) | > 100 µM (inactive) | > 100 µM (inactive) | > 100 µM (inactive) | > 100 µM (inactive) | > 100 µM (inactive) | – | > 100 µM (inactive) | > 100 µM (inactive) | > 100 µM (inactive) | – | > 100 µM (inactive) | > 100 µM (inactive)
Cc1cc(C)c(O)c(Cc2cccc(Cc3cc(C)cc(C)c3O)c2O)c1 | > 100 µM (inactive) | > 100 µM (inactive) | > 100 µM (inactive) | > 100 µM (inactive) | > 100 µM (inactive) | 35.5 µM (inactive) | > 100 µM (inactive) | > 100 µM (inactive) | > 100 µM (inactive) | > 100 µM (inactive) | > 100 µM (inactive) | > 100 µM (inactive) | > 100 µM (inactive) | > 100 µM | > 100 µM (inactive) | > 100 µM (inactive) | – | > 100 µM (inactive) | > 100 µM (inactive) | > 100 µM (inactive)
